In PubChem BioAssay AID179 (DTP/NCI, 2004):
Calls of active or inactive are those of the source.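 How the source made its calls: active means compounds giving half or more protection of infected cells from virus-caused growth loss, again on retest; inactive means the rest.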

Test system: CEM cells HIV-1 protection, formazan growth assay
Experiment: NCI AIDS Antiviral Assay
Settings: for IC50: measured here: growth of uninfected CEM cells
In short: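 Screen of anti-HIV-1 activity in human CEM cells using a formazan-based growth measurement at five drug concentrations. Hits with 50% or greater protection were repeated, and confirmation required reproducible complete protection.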

Cc1cn(C2CC3C(COCN3O)O2)c(=O)[nH]c1=O (centres undefined) showed an EC50 of over 200 µM and an IC50 of 166 µM.

C=CP(CCP(CCP(C=C)N(CC)CC)c1ccccc1)N(CC)CC (centres undefined) was tested, and the EC50 was over 6.46 µM and the IC50 was over 6.46 µM.

NC(CCSCCSCCC(N)C(=O)O)C(=O)O (centres undefined) showed an EC50 of over 3.39 µM and an IC50 of over 3.39 µM.

Work on COc1c2c(cc3c1C1(O)Cc4ccc5c(c4C[N+]1(C)CC3)OCO5)OCO2 (centres undefined) yielded an EC50 of over 61.7 µM and an IC50 of over 61.7 µM.

With O=C(O)CCC(CCC(=O)O)(C(=O)O)c1ccccc1 the EC50 was over 5620 µM and the IC50 was 4470 µM.

O=[N+]([O-])c1c(C=Nc2ccccc2)oc(-c2c(O)ccc3ccccc23)c1-c1c(O)ccc2ccccc12 showed an EC50 of over 200 µM and an IC50 of 31.6 µM.

In the case of COc1cc(/C=C2/SC(c3ccccc3)N(c3cccc(NC(C)=O)c3)C2=O)cc(OC)c1OC (centres undefined), the EC50 is reported as over 200 µM and the IC50 is reported as 53.7 µM.

For CO/C(=N\N=C\c1ccc(OC)cc1OC)c1ccncc1, the EC50 was over 229 µM and the IC50 was 105 µM.

Compound CCP(=S)(CC)CCl has an EC50 of over 200 µM and an IC50 of over 200 µM.

For COc1cc(OC)c(C2=NOC(n3c4ccccc4c4ccccc43)C2)c(OC)c1 (centres undefined), the outcome was “inactive”.

For Fc1ccc(CN2COc3c(cc(Cl)c4cccnc34)C2)cc1, the EC50 was over 200 µM and the IC50 was 0.977 µM.

Work on CCOC(=O)CON=c1c2ccccc2ccc2ccccc12 yielded an EC50 of over 200 µM and an IC50 of over 200 µM.

Nc1nc2c(c(=O)[nH]1)N1CN(c3ccc(C(=O)NC(CCC(=O)O)C(=O)O)cc3)CCC1CN2 (centres undefined) showed an EC50 of over 347 µM and an IC50 of 60.3 µM.

CC(C)O[C@H]1N(C2CC(N=[N+]=[N-])C(CO)O2)C(=O)NC(=O)[C@]1(C)Cl (some centres undefined) gave an EC50 of over 200 µM and an IC50 of over 200 µM.

With C=CCN(N=O)C(=O)NCCCCC(NC(C)=O)C(=O)NCc1ccccc1 (centres undefined) the outcome was “inactive”.

Work on CC1OC(OC2C(OC(=O)[C@]34CCC(C)(C)CC3C3=CCC5[C@@]6(C)C[C@H](O)[C@H](OC7OC(CO)C(O)C(O)C7N)[C@@](C)(C(=O)O)C6CC[C@@]5(C)C3(C)CC4)OCC(O)C2O)C(O)C(O)C1OC1OCC(O)C(O)C1O (some centres undefined) yielded an EC50 of over 123 µM and an IC50 of over 123 µM.

NC(=O)C12CCC1C1CCCCC12N1CCOCC1 (centres undefined) was tested, and the outcome was “inactive”.

CC(=O)N1C(=O)C(C)(C2=CC(=O)c3ccccc3C2=O)c2ccc(Br)cc21 (centres undefined) gave an EC50 of over 200 µM and an IC50 of 2.29 µM.

Compound Cc1ccc(N=Nc2c(N)nn3cc4c(nc23)-c2ccccc2C4)cc1 has an EC50 of over 200 µM and an IC50 of 2.95 µM.

COC(=O)[C@@H](NC(=O)N(CCC#N)CCCN(C(=O)N[C@H](Cc1ccccc1)C(=O)OC)c1ccccc1)C(C)C showed an EC50 of over 200 µM and an IC50 of 87.1 µM.

COC(=O)c1cc(C(=CCl)c2cc(C(=O)OC)c(OC)c(Br)c2C)c(C)c(Br)c1OC showed an EC50 of over 200 µM and an IC50 of 6.46 µM.

NCCCN1c2ccccc2Sc2ccc(Cl)cc21 showed an EC50 of over 200 µM and an IC50 of 10.7 µM.

For CCCCCCCCC1=C(OC)C(=O)c2ccc(COC(C)=O)nc2C1=O, the outcome was “inactive”.

O=C(CCCn1ccnc1[N+](=O)[O-])NCCn1ccnc1[N+](=O)[O-] gave an EC50 of over 200 µM and an IC50 of over 200 µM.

O=[N+]([O-])c1ccc(NSc2ccccc2)cc1 gave an EC50 of over 200 µM and an IC50 of 9.33 µM.

COc1ccccc1N1CCN(S(=O)(=O)c2ccc(Cl)cc2)C1=N showed an EC50 of over 200 µM and an IC50 of 77.6 µM.

For CC(=O)N/C=C/c1cc(O)ccc1O, the outcome was “inactive”.

Cn1c([N+](=O)[O-])cnc1CSc1ccc(C#N)cc1 was tested, and the EC50 was 117 µM and the IC50 was over 200 µM.

For C=CCCON(C(=O)OC(C)(C)C)c1ccccc1, the EC50 was over 200 µM and the IC50 was 57.5 µM.

For O=[N+]([O-])c1ccccc1SS(=O)(=O)c1ccc(Cl)cc1, the EC50 was over 79.4 µM and the IC50 was 44.7 µM.

Compound CC(=O)NCCC1CN(C(=O)/C=C\I)c2ccccc21 (centres undefined) has an EC50 of over 200 µM and an IC50 of 9.33 µM.

CCO/C=N/C1=C(C#N)C(c2ccc(Cl)cc2)c2c(-c3ccccc3)nn(-c3ccccc3)c2O1 (centres undefined) was tested, and the EC50 was over 20 µM and the IC50 was 17 µM.

COC(=O)C(=O)C(C(=O)C(=O)Nc1ccc(Cl)c(Cl)c1)c1nc2ccc(C(=O)c3ccccc3)cc2[nH]c1=O (centres undefined) was tested, and the EC50 was over 33.1 µM and the IC50 was over 33.1 µM.

CN(C)c1ccc(N=O)c(O)c1 showed an EC50 of over 200 µM and an IC50 of 8.71 µM.

In the case of CCO/C=N\C1=C(C#N)SC2=N/C(=C\c3ccco3)C(=O)N21, the outcome is reported as “inactive”.

For CCCCCCCC(=O)OCC1OC(n2cc(F)c(=O)[nH]c2=O)C(N)C(O)C1O (centres undefined), the EC50 was over 309 µM and the IC50 was over 309 µM.

[Ni+2].[O-]/C(=N\N=C/c1cccc(F)c1)c1ccncc1.[O-]/C(=N\N=C\c1cccc(F)c1)c1ccncc1 showed an EC50 of over 100 µM and an IC50 of 38 µM.

O=C1c2ccccc2C(=O)c2c1ccc(O)c2O was tested, and the EC50 was over 72.4 µM and the IC50 was 42.7 µM.

For COC(=O)C1(Cc2ccc3c(c2)CCC3)Cc2ccc3c(c2C1O)CCC3 (centres undefined), the EC50 was over 200 µM and the IC50 was 12.3 µM.

With C#CCOC(=O)c1ccccc1OC(C)=O.[C-]#[O+].[C-]#[O+].[C-]#[O+].[C-]#[O+].[C-]#[O+].[C-]#[O+].[Co].[Co] the EC50 was over 200 µM and the IC50 was 9.33 µM.

For O=S(O)CCCCCSSc1ccc(Cl)cc1, the outcome was “inactive”.

CSc1n[nH]c(NC(=O)c2ccccc2CS)n1 showed an EC50 of over 64.6 µM and an IC50 of over 64.6 µM.

Compound CCCCCCCCCCCCc1ccsc1-c1ccc(-c2ccc(-c3sc(-c4cc(CCCCCCCCCCCC)c(-c5ccc(-c6ccc(-c7sccc7CCCCCCCCCCCC)s6)s5)s4)cc3CCCCCCCCCCCC)s2)s1 has an EC50 of over 50.1 µM and an IC50 of over 50.1 µM.
